# Reference: patent US9006450B2 (Boehringer Ingelheim International GmbH, priority 2010, dated 2015)
# Target: T1, human ACC2 (Homo sapiens, UniProt O00763)
# T1 construct: made in house; host or cells: insect cells (baculoviral expression system)
# Assay: ACC2 assay, spectrophotometric 384 well assay (NADH-linked, coupled lactate dehydrogenase/pyruvate kinase)
# Assay type: biochemical
# Details: ACC2 assay, hACC2 construct lacking 128 N-terminal amino acids, 25° C., 340 nm; read-out: IC50
# Summary of the method: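 ADP output tracked via pyruvate kinase/lactate dehydrogenase NADH oxidation, slope at 340 nm over 15 min, 25° C, with 500 μM ATP and 200 μM each acetyl-CoA and NADH. Enzyme: insect-cell-expressed human ACC2, N-terminal 128 residues deleted; pH 7.5 Tris with citrate, KHCO3. IC50 from four-parameter regression versus vehicle and no-acetyl-CoA controls.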
# T1 sequence (O00763 129-2458 limits assumed): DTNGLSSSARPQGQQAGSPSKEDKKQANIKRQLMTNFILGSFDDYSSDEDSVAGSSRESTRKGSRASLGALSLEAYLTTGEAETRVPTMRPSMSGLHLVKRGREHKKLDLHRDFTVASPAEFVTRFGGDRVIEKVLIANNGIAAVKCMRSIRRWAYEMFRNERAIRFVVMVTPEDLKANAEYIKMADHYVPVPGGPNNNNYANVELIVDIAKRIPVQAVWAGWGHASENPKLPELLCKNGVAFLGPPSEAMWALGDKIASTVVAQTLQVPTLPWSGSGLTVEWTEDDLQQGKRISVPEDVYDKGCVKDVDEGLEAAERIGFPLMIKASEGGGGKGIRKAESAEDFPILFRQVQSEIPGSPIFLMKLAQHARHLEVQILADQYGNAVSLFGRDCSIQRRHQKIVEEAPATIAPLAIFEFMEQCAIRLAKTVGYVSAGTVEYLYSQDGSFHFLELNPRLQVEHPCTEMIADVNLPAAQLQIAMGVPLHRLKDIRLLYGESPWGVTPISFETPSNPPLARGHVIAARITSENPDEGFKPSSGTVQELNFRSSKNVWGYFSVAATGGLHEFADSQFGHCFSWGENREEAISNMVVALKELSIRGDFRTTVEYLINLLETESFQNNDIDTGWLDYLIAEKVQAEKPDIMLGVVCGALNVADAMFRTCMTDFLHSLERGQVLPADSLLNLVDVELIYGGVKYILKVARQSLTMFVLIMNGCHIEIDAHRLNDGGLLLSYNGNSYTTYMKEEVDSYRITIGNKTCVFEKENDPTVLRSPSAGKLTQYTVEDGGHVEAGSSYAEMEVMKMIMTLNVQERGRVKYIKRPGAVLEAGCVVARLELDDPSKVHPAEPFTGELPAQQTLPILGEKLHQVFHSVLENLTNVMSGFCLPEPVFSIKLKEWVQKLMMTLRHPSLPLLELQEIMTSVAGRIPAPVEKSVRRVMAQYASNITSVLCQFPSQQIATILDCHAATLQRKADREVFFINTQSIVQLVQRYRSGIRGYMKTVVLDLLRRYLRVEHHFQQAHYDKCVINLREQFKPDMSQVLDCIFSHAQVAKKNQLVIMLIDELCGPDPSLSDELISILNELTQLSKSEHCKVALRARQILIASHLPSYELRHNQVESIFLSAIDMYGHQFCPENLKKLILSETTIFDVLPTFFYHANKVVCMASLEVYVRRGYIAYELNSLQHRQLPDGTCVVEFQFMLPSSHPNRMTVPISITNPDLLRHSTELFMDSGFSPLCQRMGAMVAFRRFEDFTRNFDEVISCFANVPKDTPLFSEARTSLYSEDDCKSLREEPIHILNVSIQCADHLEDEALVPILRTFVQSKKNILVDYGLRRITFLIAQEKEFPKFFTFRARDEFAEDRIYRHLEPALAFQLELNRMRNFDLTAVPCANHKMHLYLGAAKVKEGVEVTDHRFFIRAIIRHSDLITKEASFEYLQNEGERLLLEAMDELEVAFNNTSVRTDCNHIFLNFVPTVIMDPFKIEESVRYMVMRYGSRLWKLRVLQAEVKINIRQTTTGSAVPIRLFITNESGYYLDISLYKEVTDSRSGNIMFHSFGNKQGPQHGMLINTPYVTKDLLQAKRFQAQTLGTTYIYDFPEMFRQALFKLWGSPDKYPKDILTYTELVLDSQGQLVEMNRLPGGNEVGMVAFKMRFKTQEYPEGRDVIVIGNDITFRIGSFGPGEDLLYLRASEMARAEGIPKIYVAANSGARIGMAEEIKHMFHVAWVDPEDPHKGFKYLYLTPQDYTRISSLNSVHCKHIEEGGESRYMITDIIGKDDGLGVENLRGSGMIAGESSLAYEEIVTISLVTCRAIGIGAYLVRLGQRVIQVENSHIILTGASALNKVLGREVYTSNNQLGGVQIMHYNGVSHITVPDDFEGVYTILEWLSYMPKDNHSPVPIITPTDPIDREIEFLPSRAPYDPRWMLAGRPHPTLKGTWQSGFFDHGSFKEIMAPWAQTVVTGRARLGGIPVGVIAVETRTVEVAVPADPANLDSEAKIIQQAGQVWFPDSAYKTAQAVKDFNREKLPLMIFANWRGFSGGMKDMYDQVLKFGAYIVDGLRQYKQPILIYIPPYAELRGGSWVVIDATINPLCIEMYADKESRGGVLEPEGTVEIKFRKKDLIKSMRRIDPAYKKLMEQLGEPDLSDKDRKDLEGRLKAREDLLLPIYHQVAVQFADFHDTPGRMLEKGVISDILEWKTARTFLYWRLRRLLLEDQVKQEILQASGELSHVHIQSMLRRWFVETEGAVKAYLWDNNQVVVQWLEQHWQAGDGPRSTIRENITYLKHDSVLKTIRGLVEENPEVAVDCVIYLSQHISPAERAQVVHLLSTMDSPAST
row,IC50 [nM],SMILES
1,1000,CCOc1ccc(N2CCC(c3ccc([C@H](C)NC(=O)COC)cc3)CC2)cc1 [Example 6.15]
2,520,CC(=O)N[C@@H](C)c1ccc(C2CCN(c3ccnc(OCc4cccnc4)c3)CC2)cc1 [Example 19.34]
3,550,CC(=O)N[C@@H](C)c1ccc(C2CCN(c3ncc(-c4ccc(OC(F)(F)F)cc4)cn3)CC2)cc1 [Example 10.15]
4,370,CCCC(C)Oc1ccc(N2CCC(c3ccc([C@H](C)NC(C)=O)cc3)CC2)cc1F (stereo partly drawn) [Example 8.58]
5,4100,COc1ccc(N2CCC(c3ccc([C@H](C)NC(C)=O)cc3)CC2)cc1OC [Example 1.43]
6,300,CCOCCOc1cccc(N2CCC(c3ccc([C@H](C)NC(C)=O)cc3)CC2)c1 [Example 8.2]
7,1200,C[C@H](NC(=O)C1CC1)c1ccc(C2CCN(c3ccc4c(c3)OCC(C)(C)CO4)CC2)cc1 [Example 1.87]
8,14800,CC(=O)N[C@@H](C)c1ccc(C2CCN(c3ncc(C(=O)N4CCC(C#N)CC4)cn3)CC2)cc1 [Example 18.71]
9,1500,CC(=O)N[C@@H](C)c1ccc(C2CCN(c3ccnc(OCc4ccccc4)n3)CC2)cc1 [Example 11.23]
10,2700,CCOc1ccc(N2CCC(c3ccc([C@H](C)NC(=O)CC(C)=O)cc3)CC2)cc1 [Example 30.1]
11,70,CC(=O)N[C@@H](C)c1ccc(C2CCN(c3ccnc(OC4CCCC4)c3)CC2)cc1 [Example 19.4]
12,3700,COc1ccc(Nc2nccc(N3CCC(c4ccc([C@H](C)NC(C)=O)cc4)CC3)n2)cc1 [Example 11.54]
13,7100,CCCNc1cc(N2CCC(c3ccc([C@H](C)NC(C)=O)cc3)CC2)ncn1 [Example 11.42]
14,940,CC(=O)N[C@@H](C)c1ccc(C2CCN(c3ccnc(-c4ccc(C#N)s4)n3)CC2)cc1 [Example 22.5]
15,6600,CC(=O)N[C@@H](C)c1ccc(C2CCN(c3ccnc(NC(C)c4ccccc4)n3)CC2)cc1 (stereo partly drawn) [Example 11.39]
16,6200,CC(=O)N[C@@H](C)c1ccc(C2CCN(c3ncc(C(=O)NCCC(N)=O)cn3)CC2)cc1 [Example 18.82]
17,410,CC(=O)N[C@@H](C)c1ccc(C2CCN(c3ccc(F)c(C)c3)CC2)cc1 [Example 1.155]
18,320,CC(=O)N[C@@H](C)c1ccc(C2CCN(c3cc(N4CCC5(CC5)C4)ncn3)CC2)cc1 [Example 11.92]
19,50,CC(=O)N[C@@H](C)c1ccc(C2CCN(c3ncc(-c4ccsc4)cn3)CC2)cc1 [Example 10.62]
20,430,"CCOc1ccc(N2CCC(c3ccc([C@H](C)NC(C)=S)cc3)CC2)cc1 [Example 38.1, (S)-N-(1-(4-(1-(4-Ethoxyphenyl)piperidin-4-yl)phenyl)ethyl)ethanethioamide]"
21,7400,CC(=O)N[C@@H](C)c1ccc(C2CCN(c3ccc4nc(C)n(C)c4c3)CC2)cc1 [Example 1.70]
22,10200,COc1ccccc1CNC(=O)c1cnc(N2CCC(c3ccc([C@H](C)NC(C)=O)cc3)CC2)nc1 [Example 18.14]
23,140,CC(=O)N[C@@H](C)c1ccc(C2CCN(c3ccc4c(c3)OCCO4)CC2)cc1 [Example 1.40]
24,130,CC(=O)N[C@@H](C)c1ccc(C2CCN(c3ccc(OC4CCC4)c(Cl)c3)CC2)cc1 [Example 8.14]
25,210,CCCOc1cnc(N2CCC(c3ccc([C@H](C)NC(C)=O)cc3)CC2)nc1 [Example 4.49]
26,2000,COc1ccccc1-c1cnc(N2CCC(c3ccc([C@H](C)NC(C)=O)cc3)CC2)nc1 [Example 10.4]
27,290,CCCOc1cnc(N2CCC(c3ccc([C@H](C)NC(C)=O)cc3)CC2)cn1 [Example 8.8]

row,IC50 [nM],SMILES
1,2900,CCOc1ccc(N2CCC(c3ccc([C@H](C)NC(C)=O)cc3)CC2)cc1OCC [Example 1.47]
2,120,C[C@H](NC(=O)C1CC1)c1ccc(C2CCN(c3ccc(OCCC4CC4)cc3)CC2)cc1 [Example 1.143]
3,1100,CC#CCOc1ccc(N2CCC(c3ccc([C@H](C)NC(C)=O)cc3)CC2)cc1 [Example 9.25]
4,290,CC(=O)N[C@@H](C)c1ccc(C2CCN(c3ccnc(C(F)(F)F)n3)CC2)cc1 [Example 4.26]
5,100,CCCOc1ccc(N2CCC(c3ccc([C@H](C)NC(=O)C4CC4)cc3)CC2)c(F)c1 [Example 1.83]
6,320,COc1cncc(-c2cnc(N3CCC(c4ccc([C@H](C)NC(C)=O)cc4)CC3)nc2)c1 [Example 10.68]
7,80,C[C@H](NC(=O)N(C)C)c1ccc(C2CCN(c3ccc(OC4CCC4)cc3)CC2)cc1 [Example 1.21]
8,30,CC(=O)N[C@@H](C)c1ccc(C2CCN(c3ncc(-c4ccc5occc5c4)cn3)CC2)cc1 [Example 10.88]
9,600,"CC(C)Oc1cc(N2CCC(c3ccc([C@H](C)NC(=O)C4CC4)cc3)CC2)ncn1 [Example 20.1, (S)-Cyclopropanecarboxylic acid (1-{4-[1-(6-isopropoxy-pyrimidin-4-yl)-piperidin-4-yl]-phenyl}-ethyl)-amide]"
10,5300,CC(=O)N[C@@H](C)c1ccc(C2CCN(c3ncc(C(=O)NCc4ccoc4)cn3)CC2)cc1 [Example 18.32]
11,5100,COc1ccccc1NC(=O)c1cnc(N2CCC(c3ccc([C@H](C)NC(C)=O)cc3)CC2)nc1 [Example 18.16]
12,380,CC(=O)N[C@@H](C)c1ccc(C2CCN(c3ccnc(Oc4ccccc4F)n3)CC2)cc1 [Example 11.26]
13,800,CCOc1ccnc(N2CCC(c3ccc([C@H](C)NC(C)=O)cc3)CC2)c1 [Example 5.47]
14,1500,CCOc1ccc(N2CCC(c3ccc([C@H](C)NC(=O)c4ccnnc4)cc3)CC2)cc1 [Example 6.19]
15,110,COc1cc(OC2CCC2)ccc1N1CCC(c2ccc([C@H](C)NC(C)=O)cc2)CC1 [Example 1.37]
16,27400,COc1ccc(COc2cc(N3CCC(c4ccc([C@H](C)NC(C)=O)cc4)CC3)ccn2)cc1 [Example 19.35]
17,430,C[C@H](NC(=O)N(C)C)c1ccc(C2CCN(c3ncc(-c4ccccc4F)cn3)CC2)cc1 [Example 10.110]
18,90,CCCCOc1ccc(N2CCC(c3ccc([C@H](C)NC(C)=O)cc3)CC2)cc1 [Example 1.3]
19,130,COc1cccc(-c2cnc(N3CCC(c4ccc([C@H](C)NC(C)=O)cc4)CC3)nc2)c1 [Example 10.3]
20,320,CC(=O)N[C@@H](C)c1ccc(C2CCN(c3cc(C(F)(F)F)ccn3)CC2)cc1 [Example 4.18]
21,2600,CC(=O)N[C@@H](C)c1ccc(C2CCN(c3cc(NC4CCCC4)ncn3)CC2)cc1 [Example 11.103]
22,380,CC(=O)N[C@@H](C)c1ccc(C2CCN(c3ccc(OCC4CCC4)c(Cl)c3)CC2)cc1 [Example 9.45]
23,6400,CC(=O)N[C@@H](C)c1ccc(C2CCN(c3ncc(C(=O)N(C)Cc4ccccn4)cn3)CC2)cc1 [Example 18.37]
24,17700,CC(=O)N[C@@H](C)c1ccc(C2CCN(c3ccc(C)nc3)CC2)cc1 [Example 15.5]
25,100,CCOC(=O)C1(Oc2ccc(N3CCC(c4ccc([C@H](C)NC(C)=O)cc4)CC3)cc2)CCC1 [Example 8.10]
26,12100,CCOc1ccc(N2CCC(c3ccc([C@H](C)NC(=O)N4CCCCC4)cc3)CC2)cc1 [Example 14.69]
27,180,CSc1ccc(-c2cnc(N3CCC(c4ccc([C@H](C)NC(C)=O)cc4)CC3)nc2)cc1 [Example 10.31]
